Columns and labels:
[1] = Cytotoxicity against human MDA435/LCC6MDR cells after 5 days by MTS assay; type: functional, cell-based; conditions: 120 h
[2] = Cytotoxicity against human MDA435/LCC6 cells after 5 days by MTS assay; type: functional, cell-based; conditions: MDA-435/LCC6, 120 h
[3] = tested on: L929; experiment: Cytotoxicity against mouse L929 cells after 3 days by MTS assay; type: cell-based; conditions: L929, 72 h
[4] = Cytotoxicity against human MDA435/LCC6MDR cells after 3 days by MTS assay; type: ADME, cell-based; conditions: 72 h
[5] = Cytotoxicity against human MDA435/LCC6 cells after 3 days by MTS assay; type: cell-based; conditions: MDA-435/LCC6, 72 h

SMILES	IC50 [1] [µM]	IC50 [2] [µM]	IC50 [3] [µM]	IC50 [4] [µM]	IC50 [5] [µM]
CC(=O)O[C@H]1C(=O)[C@@]2(C)[C@H]([C@H](OC(=O)c3ccccc3)[C@]3(O)C[C@H](OC(=O)[C@H](O)[C@@H](NC(=O)c4ccccc4)c4ccccc4)C(C)=C1C3(C)C)[C@]1(OC(C)=O)CO[C@@H]1C[C@@H]2O [PACLITAXEL]	0.149	0.0026			
CCN(CC)c1ccc(Cc2c(Cc3ccc(OC)c(OC)c3)nc(NC(=O)c3cc(OC)c(OC)c(OC)c3)n2C)cc1			47.4	38.3	45.2
CCN(CC)c1ccc(Cc2c(Cc3ccc(OC)c(OC)c3)nc(N(C(=O)/C=C/c3cc(OC)c(OC)c(OC)c3)C(=O)/C=C/c3cc(OC)c(OC)c(OC)c3)n2C)cc1			18.2	9.1	13.7

Reference: ChEMBL document CHEMBL3286309, “4,5-Di-substituted benzyl-imidazol-2-substituted amines as the structure template for the design and synthesis of reversal agents against P-gp-mediated multidrug resistance breast cancer cells” (Eur J Med Chem, 2014)
